Experimental data taken from patent US10246444B2, “1,2-dithiolane and dithiol compounds useful in treating mutant EGFR-mediated diseases and conditions” (Sabila Biosciences LLC, priority 2017, dated 2019).
Like-named read-outs stand apart in the source and are kept apart here.

Legend:
EGFR (L858R) [1] = target: T1, EGFR (L858R) (Homo sapiens (Human), UniProt P00533, L858R); test: KINOMEscan competition binding assay (Kd); settings: read-out: Kd Activity Level (EGFR L858R)
Experimental: (§1) The assay is performed by combining three components: DNA-tagged kinase; immobilized ligand; and a test compound. The ability of the test compound to compete with the immobilized ligand is measured via quantitative PCR of the DNA tag.
(§2) For most assays, kinase-tagged T7 phage strains were prepared in an E. coli host derived from the BL21 strain. E. coli were grown to log-phase and infected with T7 phage and incubated with shaking at 32° C. until lysis. The lysates were centrifuged and filtered to remove cell debris. The remaining kinases were produced in HEK-293 cells and subsequently tagged with DNA for qPCR detection. Streptavidin-coated magnetic beads were treated with biotinylated small molecule ligands for 30 minutes at room temperature to generate affinity resins for kinase assays. The liganded beads were blocked with excess biotin and washed with blocking buffer (SeaBlock (Pierce), 1% BSA, 0.05% Tween 20, 1 mM DTT) to remove unbound ligand and to reduce nonspecific binding. […] All reactions were performed in polystyrene 96-well plates in a final volume of 0.135 ml. […] The kinase concentration in the eluates was measured by qPCR.

EGFR WT (wild type EGFR) = EGFR WT (wild type EGFR) (Homo sapiens (Human), UniProt P00533); test: KINOMEscan competition binding assay (Kd); settings: read-out: Kd Activity Level (EGFR WT)
Experimental: as §1, §2

EGFR L858R/T790M = EGFR L858R/T790M (Homo sapiens (Human), UniProt P00533, L858R/T790M); test: KINOMEscan competition binding assay (Kd); settings: KINOMEscan binding constant; read-out: Kd Activity Level (EGFR L858R/T790M)
Experimental: as §1, §2

EGFR E746-A750del = EGFR E746-A750del (Homo sapiens (Human), UniProt P00533, DEL746-750); test: KINOMEscan competition binding assay (Kd); settings: KINOMEscan binding constant; read-out: Kd Activity Level (EGFR E746-A750del)
Experimental: as §1, §2

EGFR (L858R) [2] = target: T1, EGFR (L858R); test: KinaseSeeker rabbit reticulocyte lysate competition binding assay (IC50)
Experimental: (§3) Luminescence readout translates into a highly sensitive and robust assay with low background and minimal interference from test compounds.
(§4) 10 mM stock solutions of test compounds were serially diluted in DMSO to make assay stocks. Prior to initiating IC50 determinations, the test compounds were evaluated for false positive against split-luciferase.
(§5) For kinase assays, Cfluc-kinase was translated along with Fos-Nfluc using a cell-free system (rabbit reticulocyte lysate) at 30° C. for 90 min. 24 uL aliquot of this lysate containing either 1 uL of DMSO (for no-inhibitor control) or compound solution in DMSO was incubated for 30 minutes at room temperature followed by 1 hour in presence of a kinase specific probe. 80 uL of luciferin assay reagent was added to each solution and luminescence was immediately measured on a luminometer.
(§6) The % Activity was plotted against compound concentration and the IC50 was determined for each compound using a 7-point curve (Jester, B. W.; et. al. J. Am. Chem. Soc. 2010, 132, 11727-11735. Jester, B. W.; et. al. J. Med. Chem. 2012, 55, 1526-1537).

EGFR S752-I759del = EGFR S752-I759del (Homo sapiens (Human), UniProt P00533, DEL752-759); test: KINOMEscan competition binding assay (Kd); settings: KINOMEscan binding constant; read-out: Kd Activity Level (EGFR S752-I759del)
Experimental: as §1, §2

EGFR WT = EGFR WT (Homo sapiens (Human), UniProt P00533); test: KinaseSeeker rabbit reticulocyte lysate competition binding assay (IC50)
Experimental: as §3, §4, §5, §6

HER2 = HER2 (Homo sapiens (Human), UniProt P04626); test: as above
Experimental: as §3, §4, §5, §6

[3] = read-out: IC50 Activity level EGFR L858R, KinaseSeeker, Table 18

Sequence of HER2 (P04626 23-1255): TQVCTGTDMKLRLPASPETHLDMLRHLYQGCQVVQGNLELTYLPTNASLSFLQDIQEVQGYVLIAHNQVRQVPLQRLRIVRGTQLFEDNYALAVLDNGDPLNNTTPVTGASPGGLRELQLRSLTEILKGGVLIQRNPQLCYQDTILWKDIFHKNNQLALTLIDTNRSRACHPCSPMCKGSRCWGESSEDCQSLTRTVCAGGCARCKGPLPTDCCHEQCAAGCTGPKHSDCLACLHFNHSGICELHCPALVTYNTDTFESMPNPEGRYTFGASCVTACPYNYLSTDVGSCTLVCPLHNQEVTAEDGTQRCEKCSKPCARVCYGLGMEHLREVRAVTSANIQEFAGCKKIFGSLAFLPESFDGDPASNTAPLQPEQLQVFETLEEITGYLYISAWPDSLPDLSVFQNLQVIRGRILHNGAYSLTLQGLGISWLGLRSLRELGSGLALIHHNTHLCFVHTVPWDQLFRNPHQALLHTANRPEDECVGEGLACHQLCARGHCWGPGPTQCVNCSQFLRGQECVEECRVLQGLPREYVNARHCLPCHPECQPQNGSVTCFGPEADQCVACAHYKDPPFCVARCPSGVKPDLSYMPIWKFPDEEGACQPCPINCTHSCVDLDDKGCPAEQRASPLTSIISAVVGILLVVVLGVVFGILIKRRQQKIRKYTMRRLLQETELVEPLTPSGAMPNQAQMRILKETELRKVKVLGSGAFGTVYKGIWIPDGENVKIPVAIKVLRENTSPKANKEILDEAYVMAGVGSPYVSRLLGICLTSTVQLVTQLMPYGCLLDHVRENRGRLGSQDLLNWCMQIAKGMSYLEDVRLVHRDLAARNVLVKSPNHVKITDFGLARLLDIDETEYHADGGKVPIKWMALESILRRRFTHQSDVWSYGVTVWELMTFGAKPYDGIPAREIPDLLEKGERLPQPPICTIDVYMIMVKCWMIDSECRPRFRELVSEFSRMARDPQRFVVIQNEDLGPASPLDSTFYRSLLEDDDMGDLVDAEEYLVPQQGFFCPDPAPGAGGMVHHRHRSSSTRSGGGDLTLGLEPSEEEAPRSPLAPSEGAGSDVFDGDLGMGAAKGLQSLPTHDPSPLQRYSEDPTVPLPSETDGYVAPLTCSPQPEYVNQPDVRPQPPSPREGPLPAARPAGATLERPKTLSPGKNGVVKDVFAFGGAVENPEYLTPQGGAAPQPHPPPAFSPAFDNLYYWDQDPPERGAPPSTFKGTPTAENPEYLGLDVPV
Sequence of EGFR L858R/T790M (P00533 25-1210 T790M/L858R): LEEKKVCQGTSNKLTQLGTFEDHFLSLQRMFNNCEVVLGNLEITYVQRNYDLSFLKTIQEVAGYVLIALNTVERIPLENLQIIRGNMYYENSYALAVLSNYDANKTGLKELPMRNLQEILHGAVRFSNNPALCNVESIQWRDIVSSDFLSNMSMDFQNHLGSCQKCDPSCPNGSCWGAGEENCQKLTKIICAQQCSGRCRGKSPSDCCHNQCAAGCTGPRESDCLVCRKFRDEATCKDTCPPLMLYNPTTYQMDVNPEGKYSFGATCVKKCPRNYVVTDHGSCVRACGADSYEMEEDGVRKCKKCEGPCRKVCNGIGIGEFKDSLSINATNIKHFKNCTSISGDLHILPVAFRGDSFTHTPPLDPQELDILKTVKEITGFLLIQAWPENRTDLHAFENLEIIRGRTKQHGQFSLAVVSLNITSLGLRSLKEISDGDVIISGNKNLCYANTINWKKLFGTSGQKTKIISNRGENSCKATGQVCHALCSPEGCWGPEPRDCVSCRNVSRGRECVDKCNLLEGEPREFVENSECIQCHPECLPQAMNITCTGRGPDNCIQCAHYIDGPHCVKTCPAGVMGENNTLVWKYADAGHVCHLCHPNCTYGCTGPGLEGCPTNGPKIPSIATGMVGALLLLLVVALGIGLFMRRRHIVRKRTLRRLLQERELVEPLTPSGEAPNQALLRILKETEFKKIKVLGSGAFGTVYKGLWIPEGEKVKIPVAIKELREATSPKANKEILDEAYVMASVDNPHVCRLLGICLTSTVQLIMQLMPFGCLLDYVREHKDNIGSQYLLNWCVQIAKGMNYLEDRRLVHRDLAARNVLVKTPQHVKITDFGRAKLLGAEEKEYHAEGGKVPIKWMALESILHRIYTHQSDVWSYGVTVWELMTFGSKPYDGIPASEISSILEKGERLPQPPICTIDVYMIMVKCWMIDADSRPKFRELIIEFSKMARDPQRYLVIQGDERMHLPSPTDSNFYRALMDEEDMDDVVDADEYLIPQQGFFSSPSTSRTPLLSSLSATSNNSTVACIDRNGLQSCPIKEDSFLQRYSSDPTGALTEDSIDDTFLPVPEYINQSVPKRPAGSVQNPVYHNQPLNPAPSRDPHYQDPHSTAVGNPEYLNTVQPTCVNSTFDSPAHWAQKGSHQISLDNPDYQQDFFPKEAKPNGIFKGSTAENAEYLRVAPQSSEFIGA
Sequence of EGFR E746-A750del (P00533 other isoform, or with tags, fused parts or gaps del E746-A750): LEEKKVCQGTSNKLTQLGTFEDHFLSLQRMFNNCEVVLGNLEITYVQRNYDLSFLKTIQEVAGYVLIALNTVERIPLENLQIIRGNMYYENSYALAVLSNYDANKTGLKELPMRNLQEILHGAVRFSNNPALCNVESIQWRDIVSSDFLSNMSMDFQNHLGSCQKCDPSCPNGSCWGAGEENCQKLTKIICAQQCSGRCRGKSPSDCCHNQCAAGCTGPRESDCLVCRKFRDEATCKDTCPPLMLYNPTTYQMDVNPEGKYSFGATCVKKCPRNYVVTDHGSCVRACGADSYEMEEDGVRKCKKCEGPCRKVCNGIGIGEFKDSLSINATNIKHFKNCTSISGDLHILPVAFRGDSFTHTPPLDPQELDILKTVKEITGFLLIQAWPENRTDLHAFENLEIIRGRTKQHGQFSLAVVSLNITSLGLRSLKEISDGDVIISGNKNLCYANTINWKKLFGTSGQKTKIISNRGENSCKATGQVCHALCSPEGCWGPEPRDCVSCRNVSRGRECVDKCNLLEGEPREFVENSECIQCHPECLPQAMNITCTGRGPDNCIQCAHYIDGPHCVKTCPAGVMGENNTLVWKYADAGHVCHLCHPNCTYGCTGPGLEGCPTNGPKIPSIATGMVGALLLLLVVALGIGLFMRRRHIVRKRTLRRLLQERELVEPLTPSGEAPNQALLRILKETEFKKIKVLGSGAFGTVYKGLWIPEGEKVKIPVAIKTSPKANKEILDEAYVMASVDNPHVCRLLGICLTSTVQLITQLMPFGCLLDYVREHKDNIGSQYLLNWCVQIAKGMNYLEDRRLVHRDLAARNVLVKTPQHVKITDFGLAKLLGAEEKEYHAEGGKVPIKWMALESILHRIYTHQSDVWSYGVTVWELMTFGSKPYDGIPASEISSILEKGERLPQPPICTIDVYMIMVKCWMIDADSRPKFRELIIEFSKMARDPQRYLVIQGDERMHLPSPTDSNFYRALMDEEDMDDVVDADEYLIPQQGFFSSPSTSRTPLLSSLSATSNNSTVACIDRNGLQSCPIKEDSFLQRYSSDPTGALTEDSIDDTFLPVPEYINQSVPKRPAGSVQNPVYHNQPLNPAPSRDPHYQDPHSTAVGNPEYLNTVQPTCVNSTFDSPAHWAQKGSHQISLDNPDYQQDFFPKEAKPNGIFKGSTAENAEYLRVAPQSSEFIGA
T1 sequence (P00533 25-1210 L858R): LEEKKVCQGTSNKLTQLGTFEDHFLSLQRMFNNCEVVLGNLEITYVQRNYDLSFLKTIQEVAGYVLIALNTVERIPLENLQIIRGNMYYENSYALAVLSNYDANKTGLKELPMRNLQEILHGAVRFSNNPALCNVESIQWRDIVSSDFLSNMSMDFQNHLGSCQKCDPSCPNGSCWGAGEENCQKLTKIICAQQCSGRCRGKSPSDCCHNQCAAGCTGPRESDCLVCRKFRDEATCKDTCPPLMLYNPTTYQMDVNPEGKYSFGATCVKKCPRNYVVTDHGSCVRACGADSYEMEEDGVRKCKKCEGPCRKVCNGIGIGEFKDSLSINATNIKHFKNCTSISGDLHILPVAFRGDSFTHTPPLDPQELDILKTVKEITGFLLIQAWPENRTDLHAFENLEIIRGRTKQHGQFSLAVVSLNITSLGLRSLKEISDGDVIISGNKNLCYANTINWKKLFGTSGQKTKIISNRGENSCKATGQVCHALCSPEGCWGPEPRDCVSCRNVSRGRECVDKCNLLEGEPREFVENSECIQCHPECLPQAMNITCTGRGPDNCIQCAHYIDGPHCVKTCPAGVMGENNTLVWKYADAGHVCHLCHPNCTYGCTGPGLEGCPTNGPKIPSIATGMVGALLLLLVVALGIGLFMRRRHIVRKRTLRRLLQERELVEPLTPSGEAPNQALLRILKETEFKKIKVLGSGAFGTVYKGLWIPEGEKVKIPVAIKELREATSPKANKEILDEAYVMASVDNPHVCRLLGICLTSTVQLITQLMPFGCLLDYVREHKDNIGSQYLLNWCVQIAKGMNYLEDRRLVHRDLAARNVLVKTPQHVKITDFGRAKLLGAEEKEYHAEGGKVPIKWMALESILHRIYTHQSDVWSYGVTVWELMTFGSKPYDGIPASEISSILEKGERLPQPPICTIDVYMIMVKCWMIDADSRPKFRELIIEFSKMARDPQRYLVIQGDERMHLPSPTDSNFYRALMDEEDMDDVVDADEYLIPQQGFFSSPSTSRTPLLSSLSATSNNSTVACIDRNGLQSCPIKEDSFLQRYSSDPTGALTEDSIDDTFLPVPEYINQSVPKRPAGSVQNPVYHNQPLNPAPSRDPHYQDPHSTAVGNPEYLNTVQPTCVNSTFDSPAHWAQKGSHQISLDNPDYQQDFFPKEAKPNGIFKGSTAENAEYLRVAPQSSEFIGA
Sequence of EGFR S752-I759del (P00533 other isoform, or with tags, fused parts or gaps del 1-668/del 752-759/del 1012-1210 limits assumed): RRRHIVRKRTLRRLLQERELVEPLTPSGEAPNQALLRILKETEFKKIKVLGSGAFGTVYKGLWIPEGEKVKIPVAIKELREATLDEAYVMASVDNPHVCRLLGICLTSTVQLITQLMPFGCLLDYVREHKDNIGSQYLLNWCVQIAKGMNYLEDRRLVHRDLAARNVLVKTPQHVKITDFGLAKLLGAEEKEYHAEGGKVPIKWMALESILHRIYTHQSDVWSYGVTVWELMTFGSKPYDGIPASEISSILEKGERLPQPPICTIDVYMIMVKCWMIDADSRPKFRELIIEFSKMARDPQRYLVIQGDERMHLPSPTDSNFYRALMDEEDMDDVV

Work on CC1(C)OC[C@H](COc2cc3ncc(C#N)c(Nc4ccc(OCc5cccc(F)c5)c(Cl)c4)c3cc2NC(=O)CC2CCSS2)O1 (single isomer, unassigned; isomer 2) [84 isomer 2] yielded a Kd (EGFR (L858R) [1]) of 1 to 99 nM and a Kd (EGFR WT (wild type EGFR)) of 1 to 99 nM.

CC1(C)OC[C@H](COc2cc3ncc(C#N)c(Nc4ccc(OCc5cccc(F)c5)c(Cl)c4)c3cc2NC(=O)CC2CCSS2)O1 (stereo partly drawn) [Example 79, N-(4-((3-Chloro-4-((3-fluorobenzyl)oxy)phenyl)amino)-3-cyano-7-(((S)-2,2-dimethyl-1,3-dioxolan-4-yl)methoxy)quinolin-6-yl)-2-(1,2-dithiolan-3-yl)acetamide] gave a Kd (EGFR (L858R) [1]) of 1 to 99 nM and a Kd (EGFR WT (wild type EGFR)) of 1 to 99 nM.

For CCOc1cc2ncc(C#N)c(Nc3ccc(OCc4cccc(F)c4)c(Cl)c3)c2cc1NC(=O)C1CSSC1 [Example 36, N-(4-((3-Chloro-4-((3-fluorobenzyl)oxy)phenyl)amino)-3-cyano-7-ethoxyquinolin-6-yl)-1,2-dithiolane-4-carboxamide], the Kd (EGFR L858R/T790M) was greater than 10000 nM, the Kd (EGFR E746-A750del) was 1 to 99 nM and the IC50 (EGFR (L858R) [2]) was 1 to 99 nM. It also gave a Kd (EGFR (L858R) [1]) of 1 to 99 nM, a Kd (EGFR S752-I759del) of 1 to 99 nM and a Kd (EGFR WT (wild type EGFR)) of 1 to 99 nM. It also gave an IC50 (EGFR WT) of 100 to 999 nM and an IC50 (HER2) of 100 to 999 nM.

Work on Cc1ccc(Oc2ccc(Nc3c(C#N)cnc4ccc(NC(=O)CC5CCSS5)cc34)cc2C)cn1 (stereo not shown) [Example 55, N-(3-Cyano-4-((3-methyl-4-((6-methylpyridin-3-yl)oxy)phenyl)amino)quinolin-6-yl)-2-(1,2-dithiolan-3-yl)acetamide] yielded an IC50 (EGFR (L858R) [2]; [3]) greater than 10000 nM, an IC50 (EGFR WT; read-out: IC50 Activity level EGFR WT, KinaseSeeker, Table 18) greater than 10000 nM and an IC50 (HER2; read-out: IC50 Activity level HER2, KinaseSeeker, Table 18) greater than 10000 nM.

CC(=O)SCC(CSC(C)=O)C(=O)Nc1ccc2ncc(C#N)c(Nc3ccc(OCc4cccc(F)c4)c(Cl)c3)c2c1 [Example 60, S,S′-(2-((4-((3-Chloro-4-((3-fluorobenzyl)oxy)phenyl)amino)-3-cyanoquinolin-6-yl)carbamoyl)propane-1,3-diyl)diethanethioate] showed an IC50 (EGFR (L858R) [2]) of 1 to 99 nM and an IC50 (EGFR WT) of 100 to 999 nM.

For CC1(C)OC[C@H](COc2cc3ncc(C#N)c(Nc4ccc(OCc5cccc(F)c5)c(Cl)c4)c3cc2NC(=O)C[C@@H]2CCSS2)O1 (single isomer, unassigned; isomer 1) [80 isomer 1], the Kd (EGFR (L858R) [1]) was 1 to 99 nM and the Kd (EGFR WT (wild type EGFR)) was 1 to 99 nM.

CCOc1cc2ncc(C#N)c(Nc3ccc(F)c(Cl)c3)c2cc1NC(=O)CCCCC1CCSS1 (stereo not shown) [Example 42, N-(4-(3-Chloro-4-fluorophenylamino)-3-cyano-7-ethoxyquinolin-6-yl)-5-(1,2-dithiolan-3-yl)pentanamide] was tested, and the IC50 (EGFR (L858R) [2]) was 100 to 999 nM, the IC50 (EGFR WT) was 100 to 999 nM and the IC50 (HER2) was 100 to 999 nM.

Molecule CCOc1cc2ncc(C#N)c(Nc3ccc(F)c(Cl)c3)c2cc1NC(=O)CC1CCSS1 (stereo not shown) [Example 39, N-(4-((3-Chloro-4-fluorophenyl)amino)-3-cyano-7-ethoxyquinolin-6-yl)-2-(1,2-dithiolan-3-yl)acetamide] has an IC50 (EGFR (L858R) [2]) of 100 to 999 nM.

Molecule CCOc1cc2ncc(C#N)c(Nc3ccc(F)c(Cl)c3)c2cc1NC(=O)C1CSSC1 [Example 31, N-(4-((3-Chloro-4-fluorophenyl)amino)-3-cyano-7-ethoxyquinolin-6-yl)-1,2-dithiolane-4-carboxamide] has an IC50 (EGFR (L858R) [2]) of 100 to 999 nM, an IC50 (EGFR WT) of 100 to 999 nM and an IC50 (HER2) of 100 to 999 nM.

Work on CCOc1cc2ncc(C#N)c(Nc3ccc(OCc4cccc(F)c4)c(Cl)c3)c2cc1NC(=O)CCCCC1CCSS1 (stereo not shown) [Example 44] yielded an IC50 (EGFR (L858R) [2]) of 1 to 99 nM.

N#Cc1cnc2cc(OC[C@H](O)CO)c(NC(=O)CC3CCSS3)cc2c1Nc1ccc(OCc2cccc(F)c2)c(Cl)c1 (stereo partly drawn) [Example 82, N-(4-((3-Chloro-4-((3-fluorobenzyl)oxy)phenyl)amino)-3-cyano-7-((R)-2,3-dihydroxypropoxy)quinolin-6-yl)-2-(1,2-dithiolan-3-yl)acetamide] showed a Kd (EGFR L858R/T790M) greater than 10000 nM, a Kd (EGFR E746-A750del) of 1 to 99 nM and an IC50 (EGFR (L858R) [2]) of 1 to 99 nM. For the same molecule, the Kd (EGFR (L858R) [1]) was 1 to 99 nM, the Kd (EGFR S752-I759del) was 1 to 99 nM and the Kd (EGFR WT (wild type EGFR)) was 1 to 99 nM. For the same molecule, the IC50 (EGFR WT) was 100 to 999 nM and the IC50 (HER2) was 100 to 999 nM.

COc1cc2ncnc(Nc3ccc(OCc4cccc(F)c4)c(Cl)c3)c2cc1NC(=O)C(CSC(C)=O)CSC(C)=O [Example 109, S,S′-(2-((4-((3-Chloro-4-((3-fluorobenzyl)oxy)phenyl)amino)-7-methoxyquinazolin-6-yl)carbamoyl)propane-1,3-diyl)diethanethioate] was tested, and the IC50 (EGFR (L858R) [2]) was 1 to 99 nM and the IC50 (EGFR WT) was 1 to 99 nM.

COc1cc2ncnc(Nc3ccc(OCc4cccc(F)c4)c(Cl)c3)c2cc1NC(=O)C1CSSC1 [Example 110, N-(4-((3-Chloro-4-((3-fluorobenzyl)oxy)phenyl)amino)-7-methoxyquinazolin-6-yl)-1,2-dithiolane-4-carboxamide] was tested, and the IC50 (EGFR (L858R) [2]) was 1 to 99 nM and the IC50 (EGFR WT) was 1 to 99 nM.

With CC(=O)SCC(CSC(C)=O)C(=O)Nc1cc2c(Nc3ccc(OCc4cccc(F)c4)c(Cl)c3)c(C#N)cnc2cc1OC[C@H](O)CO [Example 94, (R)—S,S′-(2-((4-((3-Chloro-4-((3-fluorobenzyl)oxy)phenyl)amino)-3-cyano-7-(2,3-dihydroxypropoxy)quinolin-6-yl)carbamoyl)propane-1,3-diyl)diethanethioate] the Kd (EGFR (L858R) [1]) was 1 to 99 nM and the Kd (EGFR WT (wild type EGFR)) was 1 to 99 nM.

In the case of CC1(C)OC[C@@H](COc2cc3ncc(C#N)c(Nc4ccc(OCc5cccc(F)c5)c(Cl)c4)c3cc2NC(=O)CC2CCSS2)O1 (single isomer, unassigned; isomer 1) [84 isomer 1], the Kd (EGFR (L858R) [1]) is reported as 1 to 99 nM and the Kd (EGFR WT (wild type EGFR)) is reported as 1 to 99 nM.

CC1(C)OC[C@H](COc2cc3ncc(C#N)c(Nc4ccc(OCc5cccc(F)c5)c(Cl)c4)c3cc2NC(=O)C[C@H]2CCSS2)O1 (single isomer, unassigned; isomer 2) [80 isomer 2] showed a Kd (EGFR (L858R) [1]) of 1 to 99 nM and a Kd (EGFR WT (wild type EGFR)) of 1 to 99 nM.

CCOc1cc2ncc(C#N)c(Nc3ccc(F)c(Cl)c3)c2cc1NC(=O)C1CCSS1 (stereo not shown) [Example 33, N-(4-((3-Chloro-4-fluorophenyl)amino)-3-cyano-7-ethoxyquinolin-6-yl)-1,2-dithiolane-3-carboxamide] gave an IC50 (EGFR (L858R) [2]) of 1 to 99 nM, a Kd (EGFR (L858R) [1]) of 1 to 99 nM and a Kd (EGFR WT (wild type EGFR)) of 1 to 99 nM.

With N#Cc1cnc2cc(OC[C@H](O)CO)c(NC(=O)C[C@H]3CCSS3)cc2c1Nc1ccc(OCc2cccc(F)c2)c(Cl)c1 [Example 81, N-(4-((3-Chloro-4-((3-fluorobenzyl)oxy)phenyl)amino)-3-cyano-7-((R)-2,3-dihydroxypropoxy)quinolin-6-yl)-2-(1,2-dithiolan-3S-yl) acetamide] the Kd (EGFR L858R/T790M) was greater than 10000 nM, the Kd (EGFR E746-A750del) was 1 to 99 nM and the IC50 (EGFR (L858R) [2]) was 1 to 99 nM. The Kd (EGFR (L858R) [1]) was 1 to 99 nM, the Kd (EGFR S752-I759del) was 1 to 99 nM and the Kd (EGFR WT (wild type EGFR)) was 1 to 99 nM. It also gave an IC50 (EGFR WT) of 100 to 999 nM and an IC50 (HER2) of 100 to 999 nM.

CCOc1cc2ncc(C#N)c(Nc3ccc(OCc4cccc(F)c4)c(Cl)c3)c2cc1NC(=O)C(CSC(C)=O)CSC(C)=O [Example 34] showed a Kd (EGFR L858R/T790M) greater than 10000 nM, a Kd (EGFR E746-A750del) of 100 to 999 nM and an IC50 (EGFR (L858R) [2]) of 1 to 99 nM. For the same molecule, the Kd (EGFR (L858R) [1]) was 1 to 99 nM, the Kd (EGFR S752-I759del) was 100 to 999 nM and the Kd (EGFR WT (wild type EGFR)) was 1 to 99 nM. The IC50 (EGFR WT) was 100 to 999 nM and the IC50 (HER2) was 100 to 999 nM.

Work on COc1cc2ncnc(Nc3ccc(Oc4ccc(C)nc4)c(C)c3)c2cc1NC(=O)C1CSSC1 [Example 104, N-(7-Methoxy-4-((3-methyl-4-((6-methylpyridin-3-yl)oxy)phenyl)amino)quinazolin-6-yl)-1,2-dithiolane-4-carboxamide] yielded an IC50 (EGFR (L858R) [2]) of 100 to 999 nM, an IC50 (EGFR WT) of 100 to 999 nM and an IC50 (HER2) of 100 to 999 nM.

In the case of N#Cc1cnc2cc(OC[C@@H](O)CO)c(NC(=O)C[C@H]3CCSS3)cc2c1Nc1ccc(OCc2cccc(F)c2)c(Cl)c1 [Example 86, N-(4-((3-Chloro-4-((3-fluorobenzyl)oxy)phenyl)amino)-3-cyano-7-((S)-2,3-dihydroxypropoxy)quinolin-6-yl)-2-(1,2-dithiolan-3S-yl)acetamide], the Kd (EGFR L858R/T790M) is reported as greater than 10000 nM, the Kd (EGFR E746-A750del) is reported as 1 to 99 nM and the IC50 (EGFR (L858R) [2]) is reported as 1 to 99 nM. It also gave a Kd (EGFR (L858R) [1]) of 1 to 99 nM, a Kd (EGFR S752-I759del) of 1 to 99 nM and a Kd (EGFR WT (wild type EGFR)) of 1 to 99 nM. For the same molecule, the IC50 (EGFR WT) was 100 to 999 nM and the IC50 (HER2) was 100 to 999 nM.

For CCOc1cc2ncc(C#N)c(Nc3ccc(F)c(Cl)c3)c2cc1NC(=O)CC(CCSCc1ccccc1)SCc1ccccc1 (stereo not shown) [Example 38, 3,5-Bis(benzylthio)-N-(4-((3-chloro-4-fluorophenyl)amino)-3-cyano-7-ethoxyquinolin-6-yl)pentanamide], the IC50 (EGFR (L858R) [2]) was 1000 to 10000 nM.

Molecule N#Cc1cnc2cc(OC[C@@H](O)CO)c(NC(=O)C[C@@H]3CCSS3)cc2c1Nc1ccc(OCc2cccc(F)c2)c(Cl)c1 [Example 85, N-(4-((3-Chloro-4-((3-fluorobenzyl)oxy)phenyl)amino)-3-cyano-7-((S)-2,3-dihydroxypropoxy)quinolin-6-yl)-2-(1,2-dithiolan-3R-yl)acetamide] has a Kd (EGFR L858R/T790M) greater than 10000 nM, a Kd (EGFR E746-A750del) of 1 to 99 nM and an IC50 (EGFR (L858R) [2]) of 1 to 99 nM. It also gave a Kd (EGFR (L858R) [1]) of 1 to 99 nM, a Kd (EGFR S752-I759del) of 1 to 99 nM and a Kd (EGFR WT (wild type EGFR)) of 1 to 99 nM. For the same molecule, the IC50 (EGFR WT) was 100 to 999 nM and the IC50 (HER2) was 100 to 999 nM.

Work on CC(=O)Nc1ccc2ncc(C#N)c(Nc3ccc(OCc4cccc(F)c4)c(Cl)c3)c2c1 [Example 58, N-(4-((3-Chloro-4-((3-fluorobenzyl)oxy)phenyl)amino)-3-cyanoquinolin-6-yl)acetamide] yielded an IC50 (EGFR (L858R) [2]; [3]) greater than 10000 nM.
